Reference: patent US20240392302A1, “METHOD FOR DETECTING AND QUANTIFYING RNA” (FLUORESCENCE DIAGNOSIS (SHANGHAI) BIOTECH COMPANY LTD., priority 2021, published 2024)

Legend:
[1] = Function detection of the nucleic acid aptamer: fluorescence activation of I-5-14 by N16-1, its mutants and base-modified forms; type: biochemical; details: for fluorescence activation effect of base-modified N16-1 for I-5-14: base-modified aptamers; for Activation Multiple: 0.5 μM I-5-14 with 2.5 μM RNA
Description: A primer containing T7 promoter was used for amplification of corresponding cDNA of RNA to be detected, and T7 RNA polymerase (purchased from Fermentas) was used for obtaining RNA by means of transcription with recovered double-stranded cDNA as a template. 10 μL of 3 M NaAc and 115 μL of DEPC water were added into 20 μL of transcription system, and were mixed well before 150 μL of phenol chloroform-[…] mixture (phenol:chloroform:[…]=25:24:1) was added; then the mixture was mixed well by means of oscillation, and the supernatant was taken after centrifugation at 10,000 rpm for 5 min. An equal volume of chloroform solution was added and was mix well by means of oscillation, and then the supernatant was taken after centrifugation at 10,000 rpm for 5 min; the process was repeated once. 2.5 times the volume of anhydrous ethanol was added into the supernatant, and the mixture was placed in a refrigerator at −20° C. for 30 min and was subject to centrifugation at 12,000 rpm at 4° C. for 5 min; then the supernatant was removed, and the precipitation was cleaned twice with 75% pre-cooled anhydrous ethanol. After volatilization of the ethanol, the precipitation was re-suspended with an appropriate amount of screening buffer, and then was treated at 75° C. for 5 min and was placed at room temperature for more than 10 min for subsequent experiments.
Nucleic acid aptamer molecules of N16 or N16 mutants were prepared by using the commonly-used experimental method (I), 2.5 μM of nucleic acid aptamer molecules and 0.5 μM of fluorophore molecules were incubated in a detection buffer (40 mM of HEPES, pH 7.4, 125 mM of KCl, 5 mM of MgCl2, 5% DMSO), and the maximum excitation peak and the maximum emission peak of the fluorescence of the nucleic acid aptamer-fluorophore molecular complex were detected with Synergy Neo2 multifunctional enzyme-labeler. Synergy Neo2 multifunctional enzyme-labeler was used again to detect fluorescence intensity of the nucleic acid aptamer-fluorophore molecular complex under its maximum excitation and emission conditions, the control sample ([…] of fluorophore molecules without nucleic acid aptamer) was also measured under the same conditions, and the ratio of fluorescence intensity was calculated. For example, as for fluorescence of the complex formed by 2.5 μM of N16-1 nucleic acid aptamer and 0.5 μM of I-5-14 fluorophore molecules, the maximum excitation peak is 512 nm and the maximum emission peak is 574 nm. It was detected by the Synergy Neo2 multifunctional enzyme-labeler that the fluorescence intensity of the complex at an excitation condition of 512±10 nm and an emission condition of 574 nm±10 nm was 49,088, while the fluorescence intensity of the control (0.5 μM of I-5-14 fluorophore molecules) under the same detection conditions was 399, so the activation multiple of N16-1 nucleic acid aptamer to I-5-14 fluorophore molecules was 123.
According to the results, most N16-1 mutants with a single base mutation retained a relatively strong fluorescence activation effect (no smaller than 2 times) on I-5-14 (Table 2). Some N16-1 mutants with 2 to 5 base mutations still retained a relatively strong fluorescence activation effect (greater than 20 times) for I-5-14 (Table 3). In a word, many single-base and multi-base mutants of N16-1 might still retain the aptamer function of activating the 1-5-14 fluorophore molecules.

[2] = Binding constant of N16-1 and I-5-14; details: 10 nM N16-1 with I-5-14 of different concentrations
Description: In order to detect the binding constant of N16-1 and I-5-14, 10 nM of N16-1 was incubated with I-5-14 of different concentrations, so that fluorescence values thereof could be detected. According to the results, the binding constant of N16-1 and I-5-14 was 15.69 nM (FIG. 3D).

[3] = tested on: F30-N16-1 RNA aptamer molecules; test: Binding of F30-N16-1 RNA aptamer molecules with different fluorescent molecules (fluorescence spectrum, activation multiple); type: biochemical; details: for Maximum emission peak (nm) / Maximum excitation peak (nm): complex with F30-N16-1; for Activation Multiple: fluorophore with F30-N16-1
[4] = Spectral properties (excitation, emission, light absorption) of N16-1-I-5-14 complex; type: physicochemical; details: 2 μM I-5-14 with 10 μM N16-1, or 5 μM pure I-5-14
Description: In order to detect the spectral properties of N16-1-I-5-14 complex, N16-1 (SEQ ID NO: 1) RNA was prepared by using the commonly-used experimental method (I). 1 μM of I-5-14 was incubated with 5 μM of N16-1. According to the results, the maximum excitation light of N16-1-I-5-14 complex was 512 nm, and the maximum emission light thereof was 574 nm (FIG. 3B).
In order to detect the difference between the light absorption of N16-1-I-5-14 complex and that of I-5-14 fluorophore molecules per se, 2 μM of I-5-14 incubated with 10 μM of N16-1, or 5 μM of pure I-5-14 was used for detecting the light absorption of I-5-14 and that of N16-1-I-5-14 complex respectively.

[5] = tested on: BL21 (DE3, Star) Escherichia coli strain expressing F30-N16-1; test: Labeling of RNA in bacteria by F30-N16-1-I-5-14 complex; type: cell-based; details: F30-N16-1 induced with 1 mM IPTG 4 h; PBS with 2 μM I-5-14
From the text: In order to detect the effect of F30-N16-1-I-5-14 in bacteria, a bacterial expression plasmid expressing F30-N16-1 (SEQ ID NO: 2) was constructed first. F30-N16-1 in Example 2 was amplified with primers, pET28a was amplified with primers so as to remove the promoter and polyclonal site region, and then the F30-N16-1 DNA fragment obtained by means of amplification was connected to pET28a linearized vector by using the experimental method (III), and the obtained recombinant plasmid was named as pET28a-T7-F30-N16-1.
BL21 (DE3, Star) Escherichia coli strain was transformed with recombinant plasmid pET28a-T7-F30-N16-1, and monoclone was picked and cultured at 37° C.; when OD600 is about 0.2, 1 mM of IPTG was added to induce the expression of F30-N16-1, and bacteria were collected 4 h later; resuspension was performed with a PBS solution containing 2 μM of I-5-14. BL21 (DE3, Star) Escherichia coli with transformed pET28a empty vector served as control.

[6] = tested on: 293T/17 cells expressing F30-N16-1; test: Labeling of RNA in mammalian cells by F30-N16-1 and I-5-14; type: cell-based; details: 1 μm of I-5-14 added 36 h after transfection
Description: Main imaging experiments in the examples were carried out by using a confocal laser microscope Leica SP8 equipped with white laser, and an HCXPL APO 63×1.47 oil mirror and a HyD detector were used.
In order to detect labeling of RNA in mammalian cells by using F30-N16-1 and I-5-14, a mammalian cell expression plasmid expressing F30-N16-1 (SEQ ID NO: 2) was constructed. F30-N16-1 in Example 9 was amplified with primers P1, P2, and P3, respectively.
These fragments were inserted into pLKO.1 puro vector by using the experimental method (III), an expression vector obtained thereby was named as pLKO.1-F30-N16-1, and the plasmid expressed F30-N16-1.
293T/17 cells were transfected with pLKO.1-F30-N16-1 plasmid, […] of I-5-14 was added 36 h later so as to label F30-N16-1, cells not expressing the corresponding aptamer served as control, and the labeling effect was detected by using experimental method (V).

[7] = complex of 2.5 μM N16-1 and 0.5 μM I-5-14

Compound	Maximum emission peak (nm) [3] [nm]	Maximum excitation peak (nm) [3] [nm]	Activation Multiple [3]	further results
N16-2: base-modified N16-1, SEQ ID NO: 4, stem-loop structure bases replaced with deoxyribonucleotides (GGGCNCCAGGNGCNGCNNCGGCAGGNAACGGACNNAGANCCACNGNACGCCC; some stem-loop nucleotides deoxyribonucleotides, positions not given here)				fluorescence activation effect of base-modified N16-1 for I-5-14 [1]: significantly activate
N16-1: nucleic acid aptamer with a sequence SEQ ID NO: 1 (GGGCNCCAGGNGCNGCNNCGGCAGGNAACGGACNNAGANCCACNGNACGCCC; RNA, backbone and the base at N not given here)				fluorescence intensity of the complex ([1]; 2.5 μM N16-1, 0.5 μM I-5-14, excitation 512±10 nm, emission 574 nm±10 nm): 49,088; activation multiple of N16-1 nucleic acid aptamer to I-5-14 fluorophore molecules ([1]; 2.5 μM N16-1, 0.5 μM I-5-14, excitation 512±10 nm, emission 574±10 nm): 123; Activation Multiple ([1]; N16-1 mutants containing a single base mutation): 123; Activation Multiple ([1]; N16-1 mutants containing multi-base mutation): 123; maximum emission peak [1, 7]: 574 nm; maximum excitation peak [1, 7]: 512 nm; Kd [2]: 15.7 nM
CN(CCO)c1ccc(/C=C2\SC(=S)NC2=O)cc1 [I-5-14]	574	513	123	fluorescence intensity of the control ([1]; 0.5 μM I-5-14 without nucleic acid aptamer, same detection conditions): 399; maximum light absorption [4]: 477 nm; fluorescence of bacteria [5]: bright yellow fluorescence; labeling effect (fluorescence imaging) [6]: very bright yellow fluorescence
N16-3: base-modified N16-1, SEQ ID NO: 5, some of the bases modified by 2′-F (GGGCNCCAGGNGCNGCNNCGGCAGGNAACGGACNNAGANCCACNGNACGCCC; some nucleotides 2'-fluoro modified, positions not given here)				fluorescence activation effect of base-modified N16-1 for I-5-14 [1]: significantly activate
CN1CCSc2cc(/C=C3\SC(=S)NC3=S)ccc21 [I-5-34]	659	547	11	
CN(CCO)c1ccc2c(c1)C(C)(C)c1cc(/C=C3\SC(=S)NC3=S)ccc1-2 [I-5-75]	791	741	7	
CN1CCOc2cc(/C=C3\SC(=O)NC3=S)ccc21 [I-5-36]	625	517	9	
CN(CCO)c1cc2sc(/C=C3\SC(=S)NC3=O)cc2s1 [I-5-57]	647	579	1279	
